Among the data in US6995184B2, “3-arylindole derivatives and their use as CB2 receptor agonists” (Sanofi-Aventis, priority 2000, dated 2006) are ED50 values, retold here.

This experiment addresses T1, cannabinoid receptors present in the mouse spleen (Mus musculus, UniProt P47936).
T1 construct: from tissue; host or cells: mouse spleen
Briefly: In vivo affinity for cannabinoid receptors in mouse spleen after oral administration. How it is done:
The tests were carried out according to the experimental conditions described by Rinaldi-Carmona et al., J. Pharmacol. Exp. Ther., 1998, 284, 644–650.
Thus, the compounds of Examples 7, 44, 46, 72, 89, 106, 120, 130 and 132, for which the ratio of the affinity for the CB1 receptors to that for the CB2 receptors is between 400 and 4 000, are active orally with an ED50 of between 0.2 mg/kg and 20 mg/kg.

T1 sequence (P47936 whole entry): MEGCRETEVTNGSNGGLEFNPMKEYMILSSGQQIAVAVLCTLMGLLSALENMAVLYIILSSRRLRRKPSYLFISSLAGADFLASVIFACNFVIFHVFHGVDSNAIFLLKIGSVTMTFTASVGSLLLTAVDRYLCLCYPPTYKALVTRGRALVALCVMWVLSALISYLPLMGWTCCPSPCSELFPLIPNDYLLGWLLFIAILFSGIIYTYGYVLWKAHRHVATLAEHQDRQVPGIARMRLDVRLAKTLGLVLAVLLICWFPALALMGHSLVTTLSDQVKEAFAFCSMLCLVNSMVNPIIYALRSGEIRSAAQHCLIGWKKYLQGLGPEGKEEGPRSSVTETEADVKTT

As a reminder, the ED50 is the dose that gives a 50% effect, or the effect in half of the subjects. Consider `Cc1c(C(=O)c2cccc(Cl)c2Cl)c2cccc(Br)c2n1CCCS(C)(=O)=O` [Example 7, (7-Bromo-2-methyl-1-(3-(methylsulphonyl)propyl)-1H-indol-3-yl)(2,3-dichlorophenyl)methanone], for which the ED50 lay in the range of 0.2 to 20 mg/kg.
On to `Cc1c(C(=O)c2cccc(C(F)(F)F)c2F)c2ccc(Cl)c(Cl)c2n1CCCNS(C)(=O)=O` [Example 72, N-(3-(6,7-Dichloro-3-[2-fluoro-3-(trifluoromethyl)benzoyl]-2-methyl-1H-indol-1-yl)propyl)methanesulphonamide], for which the 50% effective dose (ED50) is 0.2 to 20 mg/kg.
